Results as given in patent publication US12202832B2, “Heterocyclic compounds having a calcium-sensing receptor antagonistic activity” (TAKEDA PHARMACEUTICAL COMPANY LIMITED, priority 2017, dated 2025).

Target: T1, human CaSR (Homo sapiens, UniProt P41180)
T1 construct: expressed in transfected cells; host or cells: CHO cells
T1 sequence (P41180 20-1078): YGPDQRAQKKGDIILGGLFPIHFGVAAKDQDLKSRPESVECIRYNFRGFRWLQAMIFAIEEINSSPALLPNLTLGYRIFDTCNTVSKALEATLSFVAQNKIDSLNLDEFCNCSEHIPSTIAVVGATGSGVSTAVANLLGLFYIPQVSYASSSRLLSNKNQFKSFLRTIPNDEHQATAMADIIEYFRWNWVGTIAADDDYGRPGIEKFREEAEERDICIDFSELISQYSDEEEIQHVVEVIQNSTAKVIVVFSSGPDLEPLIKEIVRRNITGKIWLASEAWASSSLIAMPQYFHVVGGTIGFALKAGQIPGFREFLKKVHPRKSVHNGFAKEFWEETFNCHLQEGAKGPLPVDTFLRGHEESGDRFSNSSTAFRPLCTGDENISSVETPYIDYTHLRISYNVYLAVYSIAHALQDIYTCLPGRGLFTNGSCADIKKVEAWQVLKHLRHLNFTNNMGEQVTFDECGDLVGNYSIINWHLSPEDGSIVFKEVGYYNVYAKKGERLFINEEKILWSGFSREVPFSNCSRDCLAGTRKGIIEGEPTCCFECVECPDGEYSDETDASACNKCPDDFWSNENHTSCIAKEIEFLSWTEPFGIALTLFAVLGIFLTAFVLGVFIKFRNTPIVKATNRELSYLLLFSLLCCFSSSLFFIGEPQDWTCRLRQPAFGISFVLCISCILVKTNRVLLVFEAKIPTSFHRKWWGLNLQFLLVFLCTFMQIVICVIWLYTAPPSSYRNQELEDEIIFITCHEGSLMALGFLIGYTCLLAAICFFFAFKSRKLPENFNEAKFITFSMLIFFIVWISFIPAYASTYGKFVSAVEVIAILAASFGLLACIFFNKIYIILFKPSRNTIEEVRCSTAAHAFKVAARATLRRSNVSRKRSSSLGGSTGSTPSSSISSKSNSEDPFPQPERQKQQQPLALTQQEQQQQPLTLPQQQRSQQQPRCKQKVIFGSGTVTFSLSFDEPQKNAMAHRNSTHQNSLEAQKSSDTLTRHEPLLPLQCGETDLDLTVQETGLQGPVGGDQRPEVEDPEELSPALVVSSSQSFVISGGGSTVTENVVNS
Experiment: Human CaSR antagonist activity (NFAT-Luciferase reporter in CHO cells)
Format: cell-based
Conditions: CHO, CaCl2 final 1.3 mM, 100% = reference antagonist at 10 μM, read-out: Inhibition rate (%) at 3.3 μM
Protocol: CaSR antagonist activity measurement was performed using Bright-Glo Luciferase assay system (Promega Corporation). CHO cells in which human CaSR and NFAT-Luciferase reporter gene were forcibly expressed were suspended in MEM alpha (Wako Pure Chemical Industries, Ltd.) containing 10% dialyzed serum (HyClone). The cells in suspension was seeded in 384-well white plate (Corning) at 10,000/20 μL/well, and cultured in an incubator of 37° C., 5% CO2 for one day. A diluent of Test compound was prepared with assay buffer (MEM alpha containing 10 mM HEPES (Life Technologies) and 10% dialysis serum). The diluent was added to the plate at 5 μL/well and allowed to stand at 37° C. for 10 minutes. Further, a diluent of 7.8 mM CaCl2 prepared with assay buffer (final concentration 1.3 mM) was added at 5 μl/well and allowed to stand in an incubator of 37° C., 5% CO2 for 2 hours. Bright-Glo reagents (Promega Corporation) were added at 10 μL/well, and the obtained mixture was stirred for 5 minutes, and then luminescence intensity was measured using Multi-label reader Envision (PerkinElmer, Inc.). The activity (%) of the test compound was calculated with the definitions in which the luminescence intensity when DMSO is added in place of the test compound is defined as 0% inhibition; and the luminescence intensity when (5R)—N-(1-ethyl-1-(4-ethylphenyl)propyl)-2,7,7-trimethyl-5-phenyl-4,5,6,7-tetrahydropyrazolo[1,5-a] Pyrimidine-3-carboxamide at final concentration of 10 μM is added is defined as 100% inhibition.

| SMILES | inhibition at 3.3 µM |
| --- | --- |
| CCc1ccc(C(CC)(NC(=O)c2cnn3c2N[C@@H](c2ccccc2)CC3(C)C)C(N)=O)cc1 (stereo partly drawn) [Example 26, (5R)-N-(1-Amino-2-(4-ethylphenyl)-1-oxobutan-2-yl)-7,7-dimethyl-5-phenyl-4,5,6,7-tetrahydropyrazolo[1,5-a]pyrimidine-3-carboxamide] | 106% |
| CCc1ccc(C(CC)(NC(=O)c2cnn3c2N[C@@H](c2ccccc2)CC3(C)C)C(=O)N[C@@H](CC(N)=O)C(N)=O)cc1 (some centres unmarked) [Example 24] | 102% |
| CCc1ccc(C(CC)(NC(=O)c2cnn3c2N[C@@H](c2ccccc2)CC3(C)C)C(=O)NC)cc1 (stereo partly drawn) [Example 29, (5R)-N-(2-(4-Ethylphenyl)-1-(methylamino)-1-oxobutan-2-yl)-7,7-dimethyl-5-phenyl-4,5,6,7-tetrahydropyrazolo[1,5-a]pyrimidine-3-carboxamide] | 103% |
| CCc1ccc([C@@](CC)(NC(=O)c2cnn3c2N[C@@H](c2ccccc2)CC3(C)C)C(=O)N[C@H](C(N)=O)[C@@H](C)O)cc1 [Example 21, (5R)-N-((2R)-1-(((2S,3R)-1-Amino-3-hydroxy-1-oxobutan-2-yl)amino)-2-(4-ethylphenyl)-1-oxobutan-2-yl)-7,7-dimethyl-5-phenyl-4,5,6,7-tetrahydropyrazolo[1,5-a]pyrimidine-3-carboxamide] | 103% |
| CCc1ccc(C(CC)(NC(=O)c2cnn3c2N[C@@H](c2ccccc2)CC3(C)C)C(=O)NCC(N)=O)cc1 (stereo partly drawn) [Example 17, (5R)-N-(1-((2-Amino-2-oxoethyl)amino)-2-(4-ethylphenyl)-1-oxobutan-2-yl)-7,7-dimethyl-5-phenyl-4,5,6,7-tetrahydropyrazolo[1,5-a]pyrimidine-3-carboxamide] | 104% |
| CCc1ccc(C(CC)(NC(=O)c2cnn3c2N[C@@H](c2ccccc2)CC3(C)C)C(=O)N[C@@H](Cc2ccccc2)C(N)=O)cc1 (some centres unmarked) [Example 18] | 101% |
| CCc1ccc(C(CC)(NC(=O)c2cnn3c2N[C@@H](c2ccccc2)CC3(C)C)C(=O)N[C@@H](CC(C)C)C(N)=O)cc1 (stereo partly drawn) [Example 14, (5R)-N-(1-(((2S)-1-Amino-4-methyl-1-oxopentan-2-yl)amino)-2-(4-ethylphenyl)-1-oxobutan-2-yl)-7,7-dimethyl-5-phenyl-4,5,6,7-tetrahydropyrazolo[1,5-a]pyrimidine-3-carboxamide] | 98% |
| CCc1ccc([C@](CC)(NC(=O)c2c(C)nn3c2N[C@@H](c2ccccc2)CC3(C)C)C(=O)N[C@@H](C)C(N)=O)cc1 [Example 3, (5R)-N-((2S)-1-(((2S)-1-Amino-1-oxopropan-2-yl)amino)-2-(4-ethylphenyl)-1-oxobutan-2-yl)-2,7,7-trimethyl-5-phenyl-4,5,6,7-tetrahydropyrazolo[1,5-a]pyrimidine-3-carboxamide] | 94% |
| CCc1ccc(C(CC)(NC(=O)c2cnn3c2N[C@@H](c2ccccc2)CC3(C)C)C(=O)N[C@@H](CCCCN)C(N)=O)cc1 (stereo partly drawn) [Example 20, (5R)-N-(1-(((2S)-1,6-Diamino-1-oxohexan-2-yl)amino)-2-(4-ethylphenyl)-1-oxobutan-2-yl)-7,7-dimethyl-5-phenyl-4,5,6,7-tetrahydropyrazolo[1,5-a]pyrimidine-3-carboxamide] | 101% |
| CCc1ccc(C(CC)(NC(=O)c2cnn3c2N[C@@H](c2ccccc2)CC3(C)C)C(=O)N[C@H](C(N)=O)[C@@H](C)CC)cc1 (stereo partly drawn) [Example 10, (5R)-N-(1-(((2S,3S)-1-Amino-3-methyl-1-oxopentan-2-yl)amino)-2-(4-ethylphenyl)-1-oxobutan-2-yl)-7,7-dimethyl-5-phenyl-4,5,6,7-tetrahydropyrazolo[1,5-a]pyrimidine-3-carboxamide] | 100% |
| CCc1ccc(C(C)(NC(=O)c2cnn3c2N[C@@H](c2ccccc2)CC3(C)C)C(=O)N[C@@H](CC(C)C)C(N)=O)cc1 (stereo partly drawn) [Example 9, (5R)-N-(1-(((2S)-1-Amino-4-methyl-1-oxopentan-2-yl)amino)-2-(4-ethylphenyl)-1-oxopropan-2-yl)-7,7-dimethyl-5-phenyl-4,5,6,7-tetrahydropyrazolo[1,5-a]pyrimidine-3-carboxamide] | 98% |
